Source: the kinase profiling compilation of Christmann-Franck et al. (2016)

Legend:
Assay in all cases: radiometric filter-binding kinase assay
[1] = tested on: SGK1 (human), O00141 [S422D]
[2] = biological target: MST4 (human) (UniProt Q9P289)
[3] = biological target: RPS6KA3 KD1 KD2 (human) (UniProt P51812)
[4] = biological target: PRKCZ (human) (UniProt Q05513)
[5] = biological target: MARK3 (human) (UniProt P27448)
[6] = biological target: PRKCA (human) (UniProt P17252)
[7] = biological target: MAPK3 (human) (UniProt P27361)
Chain of MAPK3 (human) (P27361 whole entry, looked up): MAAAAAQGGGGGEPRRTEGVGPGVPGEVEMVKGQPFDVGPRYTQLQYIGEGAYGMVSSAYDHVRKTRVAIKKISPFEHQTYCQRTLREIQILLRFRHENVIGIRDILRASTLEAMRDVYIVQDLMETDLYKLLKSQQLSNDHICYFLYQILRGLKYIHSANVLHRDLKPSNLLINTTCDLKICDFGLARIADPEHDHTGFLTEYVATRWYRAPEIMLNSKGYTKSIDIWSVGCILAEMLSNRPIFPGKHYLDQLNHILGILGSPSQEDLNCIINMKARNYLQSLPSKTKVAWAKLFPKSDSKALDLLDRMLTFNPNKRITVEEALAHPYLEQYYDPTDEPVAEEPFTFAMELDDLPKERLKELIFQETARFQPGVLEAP

[8] = biological target: PLK1 (human) (UniProt P53350)
Chain of PLK1 (human) (P53350 whole entry, looked up): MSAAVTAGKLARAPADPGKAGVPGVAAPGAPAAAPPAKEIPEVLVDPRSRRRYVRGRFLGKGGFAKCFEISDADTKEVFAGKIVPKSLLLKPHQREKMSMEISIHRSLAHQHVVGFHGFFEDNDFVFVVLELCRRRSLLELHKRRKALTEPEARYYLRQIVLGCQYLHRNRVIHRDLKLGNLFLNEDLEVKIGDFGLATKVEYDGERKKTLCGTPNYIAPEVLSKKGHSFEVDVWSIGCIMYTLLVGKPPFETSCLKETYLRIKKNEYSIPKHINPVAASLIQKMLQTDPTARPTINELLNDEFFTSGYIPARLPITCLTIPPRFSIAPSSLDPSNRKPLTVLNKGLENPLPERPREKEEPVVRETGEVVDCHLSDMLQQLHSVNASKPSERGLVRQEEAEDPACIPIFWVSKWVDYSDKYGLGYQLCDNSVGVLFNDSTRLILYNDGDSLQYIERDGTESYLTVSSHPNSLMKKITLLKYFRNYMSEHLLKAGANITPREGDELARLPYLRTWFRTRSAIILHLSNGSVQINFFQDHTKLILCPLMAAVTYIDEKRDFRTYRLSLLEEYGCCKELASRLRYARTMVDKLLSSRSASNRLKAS

[9] = biological target: RPS6KA1 KD1 KD2 (human) (UniProt Q15418)
[10] = biological target: RPS6KA5 KD1 KD2 (human) (UniProt O75582)
[11] = biological target: FLT1 (human) (UniProt P17948)
[12] = biological target: STK3 (human) (UniProt Q13188)
[13] = biological target: CHEK1 (human) (UniProt O14757)
[14] = biological target: CDK2 CCNA2 (human) (UniProt P20248+P24941)
[15] = biological target: MAPK1 (human) (UniProt P28482)
[16] = biological target: CHEK2 (human) (UniProt O96017)
[17] = biological target: EEF2K (human) (UniProt O00418)
Chain of EEF2K (human) (O00418 whole entry, looked up): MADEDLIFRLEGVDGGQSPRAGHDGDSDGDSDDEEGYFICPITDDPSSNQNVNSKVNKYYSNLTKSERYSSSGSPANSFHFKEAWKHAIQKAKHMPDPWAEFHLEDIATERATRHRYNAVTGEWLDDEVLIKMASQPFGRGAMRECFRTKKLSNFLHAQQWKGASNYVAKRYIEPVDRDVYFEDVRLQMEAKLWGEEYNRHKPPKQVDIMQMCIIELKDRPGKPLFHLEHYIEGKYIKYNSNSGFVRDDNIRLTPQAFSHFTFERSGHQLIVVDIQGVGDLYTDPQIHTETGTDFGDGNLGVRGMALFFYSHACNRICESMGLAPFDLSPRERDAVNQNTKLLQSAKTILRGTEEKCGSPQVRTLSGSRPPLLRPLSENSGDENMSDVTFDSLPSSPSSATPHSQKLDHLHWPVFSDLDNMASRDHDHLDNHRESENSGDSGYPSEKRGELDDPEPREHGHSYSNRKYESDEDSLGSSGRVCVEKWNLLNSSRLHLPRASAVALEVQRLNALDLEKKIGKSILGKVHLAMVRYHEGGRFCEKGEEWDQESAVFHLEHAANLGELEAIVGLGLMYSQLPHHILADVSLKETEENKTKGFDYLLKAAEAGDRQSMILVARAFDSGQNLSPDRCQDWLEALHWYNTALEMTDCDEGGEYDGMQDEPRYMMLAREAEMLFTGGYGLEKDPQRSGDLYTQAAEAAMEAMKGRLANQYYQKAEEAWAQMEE

[18] = biological target: BRSK2 (human) (UniProt Q8IWQ3)
[19] = biological target: SRC (human) (UniProt P12931)
Chain of SRC (human) (P12931 whole entry, looked up): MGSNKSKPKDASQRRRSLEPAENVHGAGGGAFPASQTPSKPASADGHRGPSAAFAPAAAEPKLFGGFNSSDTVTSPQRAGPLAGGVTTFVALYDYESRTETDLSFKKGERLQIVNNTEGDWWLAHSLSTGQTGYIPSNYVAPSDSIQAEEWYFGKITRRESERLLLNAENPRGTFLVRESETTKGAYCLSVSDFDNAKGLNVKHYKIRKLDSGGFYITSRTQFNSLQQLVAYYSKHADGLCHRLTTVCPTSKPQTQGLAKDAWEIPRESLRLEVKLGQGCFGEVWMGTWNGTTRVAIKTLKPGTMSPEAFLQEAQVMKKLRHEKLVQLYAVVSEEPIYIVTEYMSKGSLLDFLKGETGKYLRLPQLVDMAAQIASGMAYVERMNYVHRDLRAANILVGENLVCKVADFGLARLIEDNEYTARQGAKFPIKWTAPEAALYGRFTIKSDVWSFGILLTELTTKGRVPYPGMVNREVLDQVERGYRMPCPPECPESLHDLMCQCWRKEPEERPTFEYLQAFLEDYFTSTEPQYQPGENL

[20] = biological target: PAK6 (human) (UniProt Q9NQU5)
Chain of PAK6 (human) (Q9NQU5 whole entry, looked up): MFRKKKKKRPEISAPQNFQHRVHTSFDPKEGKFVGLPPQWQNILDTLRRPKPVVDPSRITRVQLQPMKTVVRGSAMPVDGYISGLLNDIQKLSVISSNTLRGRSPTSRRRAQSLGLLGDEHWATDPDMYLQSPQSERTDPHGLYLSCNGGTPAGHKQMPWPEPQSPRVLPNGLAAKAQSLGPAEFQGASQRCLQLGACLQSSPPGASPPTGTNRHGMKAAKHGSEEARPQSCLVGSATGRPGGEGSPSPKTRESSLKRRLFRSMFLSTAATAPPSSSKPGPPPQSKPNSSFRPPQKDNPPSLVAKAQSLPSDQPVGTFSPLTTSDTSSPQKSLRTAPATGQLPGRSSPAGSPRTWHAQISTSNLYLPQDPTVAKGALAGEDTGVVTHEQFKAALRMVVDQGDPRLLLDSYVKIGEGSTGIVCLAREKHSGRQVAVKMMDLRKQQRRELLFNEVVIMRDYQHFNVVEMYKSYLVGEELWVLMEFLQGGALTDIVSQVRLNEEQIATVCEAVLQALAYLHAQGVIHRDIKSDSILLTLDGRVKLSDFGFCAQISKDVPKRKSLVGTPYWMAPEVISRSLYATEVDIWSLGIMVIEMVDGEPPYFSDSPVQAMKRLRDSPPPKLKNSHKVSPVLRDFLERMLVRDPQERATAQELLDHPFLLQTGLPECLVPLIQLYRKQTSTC

Chain of RPS6KA3 KD1 KD2 (human) (P51812 whole entry, looked up): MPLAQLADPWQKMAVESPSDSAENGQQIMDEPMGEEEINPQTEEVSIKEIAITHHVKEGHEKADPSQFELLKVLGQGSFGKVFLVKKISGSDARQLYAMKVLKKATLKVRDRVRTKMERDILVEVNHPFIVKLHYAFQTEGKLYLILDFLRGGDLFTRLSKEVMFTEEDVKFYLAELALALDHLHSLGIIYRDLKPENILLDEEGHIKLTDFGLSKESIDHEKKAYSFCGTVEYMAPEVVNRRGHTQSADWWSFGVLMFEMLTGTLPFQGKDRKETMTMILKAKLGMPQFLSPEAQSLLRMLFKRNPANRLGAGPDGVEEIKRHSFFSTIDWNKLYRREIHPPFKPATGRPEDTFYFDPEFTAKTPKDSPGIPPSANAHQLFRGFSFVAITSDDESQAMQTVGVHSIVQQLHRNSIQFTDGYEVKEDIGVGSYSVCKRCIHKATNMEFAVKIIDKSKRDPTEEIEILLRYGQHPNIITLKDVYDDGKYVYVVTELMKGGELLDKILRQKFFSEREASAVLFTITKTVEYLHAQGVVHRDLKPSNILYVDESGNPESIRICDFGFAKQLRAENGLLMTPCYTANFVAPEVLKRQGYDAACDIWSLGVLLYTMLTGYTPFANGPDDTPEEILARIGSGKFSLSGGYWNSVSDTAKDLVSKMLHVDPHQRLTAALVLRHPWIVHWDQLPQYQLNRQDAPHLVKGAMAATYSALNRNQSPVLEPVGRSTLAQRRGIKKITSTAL
Chain of MARK3 (human) (P27448 whole entry, looked up): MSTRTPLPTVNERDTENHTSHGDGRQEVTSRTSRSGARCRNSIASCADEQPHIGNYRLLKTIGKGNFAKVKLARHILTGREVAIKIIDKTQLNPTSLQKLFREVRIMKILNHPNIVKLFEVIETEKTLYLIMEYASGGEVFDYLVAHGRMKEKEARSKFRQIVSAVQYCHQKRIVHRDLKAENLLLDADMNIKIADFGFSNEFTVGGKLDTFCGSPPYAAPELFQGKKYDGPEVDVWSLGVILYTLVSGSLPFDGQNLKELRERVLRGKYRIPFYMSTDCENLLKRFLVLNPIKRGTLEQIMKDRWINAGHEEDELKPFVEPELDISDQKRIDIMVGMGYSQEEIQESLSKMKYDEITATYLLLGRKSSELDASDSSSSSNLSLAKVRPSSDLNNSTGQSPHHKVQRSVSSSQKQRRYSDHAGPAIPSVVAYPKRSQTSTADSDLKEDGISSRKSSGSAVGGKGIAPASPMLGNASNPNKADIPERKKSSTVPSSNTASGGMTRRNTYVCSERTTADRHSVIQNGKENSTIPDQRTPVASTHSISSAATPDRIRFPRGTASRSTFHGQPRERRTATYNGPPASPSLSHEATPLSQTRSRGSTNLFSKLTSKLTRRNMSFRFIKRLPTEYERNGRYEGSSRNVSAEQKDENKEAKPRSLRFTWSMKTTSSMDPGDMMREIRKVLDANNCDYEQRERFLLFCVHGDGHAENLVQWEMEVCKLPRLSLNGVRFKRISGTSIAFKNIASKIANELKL
Chain of SGK1 (human), O00141 [S422D] (O00141 whole entry S422D, looked up): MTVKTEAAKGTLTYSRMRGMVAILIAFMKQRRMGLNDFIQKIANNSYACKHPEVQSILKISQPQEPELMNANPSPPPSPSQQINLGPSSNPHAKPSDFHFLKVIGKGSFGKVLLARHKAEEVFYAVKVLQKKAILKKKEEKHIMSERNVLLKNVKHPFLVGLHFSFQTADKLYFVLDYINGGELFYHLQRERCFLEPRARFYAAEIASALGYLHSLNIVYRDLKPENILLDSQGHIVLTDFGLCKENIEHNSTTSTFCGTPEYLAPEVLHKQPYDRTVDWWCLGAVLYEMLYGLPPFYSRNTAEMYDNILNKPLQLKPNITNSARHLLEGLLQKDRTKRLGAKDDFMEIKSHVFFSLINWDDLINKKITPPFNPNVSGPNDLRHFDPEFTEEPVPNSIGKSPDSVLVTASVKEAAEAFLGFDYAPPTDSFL

Compound Cn1c(=O)c2c(ncn2C)n(C)c1=O has a residual activity ([1]; compound 0.1 µM) of 102%, a residual activity ([2]; compound 0.1 µM) of 96% and a residual activity ([2]; compound 1.0 µM) of 97%. It also gave a residual activity ([3]; compound 0.1 µM) of 98%, a residual activity ([3]; compound 1.0 µM) of 79% and a residual activity ([4]; compound 0.1 µM) of 95%. The residual activity ([4]; compound 1.0 µM) was 88%, the residual activity ([5]; compound 0.1 µM) was 79% and the residual activity ([5]; compound 1.0 µM) was 79%. It also gave a residual activity ([6]; compound 0.1 µM) of 101%, a residual activity ([6]; compound 1.0 µM) of 100% and a residual activity ([7]; compound 0.1 µM) of 99%. It also gave a residual activity ([7]; compound 1.0 µM) of 113%, a residual activity ([8]; compound 0.1 µM) of 92% and a residual activity ([8]; compound 1.0 µM) of 95%. The residual activity ([9]; compound 0.1 µM) was 74%, the residual activity ([9]; compound 1.0 µM) was 78% and the residual activity ([10]; compound 0.1 µM) was 80%. It also gave a residual activity ([10]; compound 1.0 µM) of 82%, a residual activity ([11]; compound 0.1 µM) of 80% and a residual activity ([11]; compound 1.0 µM) of 84%. The residual activity ([12]; compound 0.1 µM) was 97%, the residual activity ([12]; compound 1.0 µM) was 89% and the residual activity ([13]; compound 0.1 µM) was 88%. The residual activity ([13]; compound 1.0 µM) was 96%, the residual activity ([14]; compound 0.1 µM) was 86% and the residual activity ([14]; compound 1.0 µM) was 91%. For the same compound, the residual activity ([15]; compound 0.1 µM) was 96%, the residual activity ([15]; compound 1.0 µM) was 101% and the residual activity ([16]; compound 0.1 µM) was 86%. For the same compound, the residual activity ([16]; compound 1.0 µM) was 83%, the residual activity ([17]; compound 0.1 µM) was 88% and the residual activity ([17]; compound 1.0 µM) was 92%. For the same compound, the residual activity ([18]; compound 0.1 µM) was 99%, the residual activity ([18]; compound 1.0 µM) was 97% and the residual activity ([19]; compound 0.1 µM) was 96%. The residual activity ([19]; compound 1.0 µM) was 88%, the residual activity ([20]; compound 0.1 µM) was 97% and the residual activity ([20]; compound 1.0 µM) was 101%.
With O=C1NC(=S)N[C@@H]1Cc1c[nH]c2ccccc12 the residual activity ([1]; compound 1.0 µM) was 87%, the residual activity ([1]; compound 10.0 µM) was 96% and the residual activity ([2]; compound 1.0 µM) was 126%. The residual activity ([2]; compound 10.0 µM) was 108%, the residual activity ([3]; compound 1.0 µM) was 78% and the residual activity ([3]; compound 10.0 µM) was 100%. For the same compound, the residual activity ([4]; compound 1.0 µM) was 77%, the residual activity ([4]; compound 10.0 µM) was 83% and the residual activity ([5]; compound 1.0 µM) was 92%. The residual activity ([5]; compound 10.0 µM) was 85%, the residual activity ([6]; compound 1.0 µM) was 97% and the residual activity ([6]; compound 10.0 µM) was 104%. The residual activity ([7]; compound 1.0 µM) was 107%, the residual activity ([7]; compound 10.0 µM) was 82% and the residual activity ([8]; compound 1.0 µM) was 97%. It also gave a residual activity ([8]; compound 10.0 µM) of 93%, a residual activity ([9]; compound 1.0 µM) of 80% and a residual activity ([9]; compound 10.0 µM) of 91%. It also gave a residual activity ([10]; compound 1.0 µM) of 80%, a residual activity ([10]; compound 10.0 µM) of 87% and a residual activity ([11]; compound 1.0 µM) of 89%. The residual activity ([12]; compound 1.0 µM) was 99%, the residual activity ([12]; compound 10.0 µM) was 102% and the residual activity ([13]; compound 10.0 µM) was 81%. It also gave a residual activity ([14]; compound 1.0 µM) of 85%, a residual activity ([14]; compound 10.0 µM) of 94% and a residual activity ([15]; compound 1.0 µM) of 80%. It also gave a residual activity ([15]; compound 10.0 µM) of 88%, a residual activity ([16]; compound 1.0 µM) of 82% and a residual activity ([16]; compound 10.0 µM) of 94%. The residual activity ([17]; compound 1.0 µM) was 75%, the residual activity ([17]; compound 10.0 µM) was 85% and the residual activity ([18]; compound 1.0 µM) was 79%. It also gave a residual activity ([18]; compound 10.0 µM) of 94%, a residual activity ([19]; compound 1.0 µM) of 94% and a residual activity ([19]; compound 10.0 µM) of 99%. It also gave a residual activity ([20]; compound 1.0 µM) of 87% and a residual activity ([20]; compound 10.0 µM) of 98%.
For C[C@H]1CCCC(=O)CCC/C=C/c2cc(O)cc(O)c2C(=O)O1, the residual activity ([1]; compound 1.0 µM) was 93%, the residual activity ([1]; compound 10.0 µM) was 93% and the residual activity ([2]; compound 10.0 µM) was 66%. It also gave a residual activity ([3]; compound 1.0 µM) of 80%, a residual activity ([3]; compound 10.0 µM) of 52% and a residual activity ([4]; compound 1.0 µM) of 98%. It also gave a residual activity ([4]; compound 10.0 µM) of 86%, a residual activity ([5]; compound 1.0 µM) of 102% and a residual activity ([5]; compound 10.0 µM) of 99%. For the same compound, the residual activity ([6]; compound 1.0 µM) was 54%, the residual activity ([6]; compound 10.0 µM) was 69% and the residual activity ([7]; compound 1.0 µM) was 113%. The residual activity ([7]; compound 10.0 µM) was 107%, the residual activity ([8]; compound 1.0 µM) was 76% and the residual activity ([8]; compound 10.0 µM) was 63%. The residual activity ([9]; compound 1.0 µM) was 89%, the residual activity ([9]; compound 10.0 µM) was 41% and the residual activity ([10]; compound 10.0 µM) was 36%. For the same compound, the residual activity ([11]; compound 1.0 µM) was 95%, the residual activity ([11]; compound 10.0 µM) was 69% and the residual activity ([12]; compound 1.0 µM) was 119%. For the same compound, the residual activity ([12]; compound 10.0 µM) was 113%, the residual activity ([13]; compound 1.0 µM) was 92% and the residual activity ([13]; compound 10.0 µM) was 81%. For the same compound, the residual activity ([14]; compound 1.0 µM) was 82%, the residual activity ([14]; compound 10.0 µM) was 32% and the residual activity ([15]; compound 1.0 µM) was 98%. It also gave a residual activity ([15]; compound 10.0 µM) of 96%, a residual activity ([16]; compound 1.0 µM) of 93% and a residual activity ([16]; compound 10.0 µM) of 73%. The residual activity ([17]; compound 1.0 µM) was 101%, the residual activity ([17]; compound 10.0 µM) was 85% and the residual activity ([18]; compound 1.0 µM) was 54%. The residual activity ([18]; compound 10.0 µM) was 17%, the residual activity ([19]; compound 1.0 µM) was 89% and the residual activity ([19]; compound 10.0 µM) was 34%. It also gave a residual activity ([20]; compound 1.0 µM) of 99% and a residual activity ([20]; compound 10.0 µM) of 94%.
